# Assay results as given in PubChem BioAssay AID316 (DTP/NCI, 2004).
# Several values for one entry are separate records, joined by “and”; a condition that tells them apart may be missing. Equal values may be shown once. Inconclusive results and toxic doses are left out.
# System: P1534 leukemia ip, CD2F1 mice, survival T/C
# Assay: NCI In Vivo Anticancer Drug Screen. Data for tumor model P1534 Leukemia (intraperitoneal) in CD2F1 (CDF1) mice
# Conditions: higher = longer survival
# Experimental: The antitumor activity of compounds was measured in mice bearing transplantable tumors. Survival or tumor size were measured and the results are expressed as the measurement made in the treated group (T) divided by the measurement made in the vehicle treated control group (C). The tumor model used in this assay is P1534 Leukemia (intraperitoneal) in CD2F1 (CDF1) mice
# [1] = endpoint: mean survival time, dose: 5.0 mg/kg/injection, schedule: Q01DX010 (ip), vehicle: saline
# [2] = endpoint: mean survival time, dose: 10.0 mg/kg/injection, schedule: Q01DX010 (ip), vehicle: saline
# [3] = endpoint: mean survival time, dose: 20.0 mg/kg/injection, schedule: Q01DX010 (ip), vehicle: saline
# [4] = endpoint: mean survival time, dose: 40.0 mg/kg/injection, schedule: Q01DX010 (ip), vehicle: saline
# [5] = endpoint: mean survival time, dose: 25.0 mg/kg/injection, schedule: Q01DX010 (ip), vehicle: saline
# [6] = endpoint: mean survival time, dose: 50.0 mg/kg/injection, schedule: Q01DX010 (ip), vehicle: saline
# [7] = endpoint: mean survival time, dose: 100.0 mg/kg/injection, schedule: Q01DX010 (ip), vehicle: saline
# [8] = endpoint: mean survival time, dose: 200.0 mg/kg/injection, schedule: Q01DX010 (ip), vehicle: saline
# [9] = endpoint: mean survival time, dose: 3.75 mg/kg/injection, schedule: Q01DX010 (ip), vehicle: saline
# [10] = endpoint: mean survival time, dose: 7.5 mg/kg/injection, schedule: Q01DX010 (ip), vehicle: saline
# [11] = endpoint: mean survival time, dose: 15.0 mg/kg/injection, schedule: Q01DX010 (ip), vehicle: saline
# [12] = endpoint: mean survival time, dose: 30.0 mg/kg/injection, schedule: Q01DX010 (ip), vehicle: saline
# [13] = endpoint: mean survival time, dose: 400.0 mg/kg/injection, schedule: Q01DX010 (ip), vehicle: saline
# [14] = endpoint: mean survival time, dose: 12.5 mg/kg/injection, schedule: Q01DX010 (ip), vehicle: saline
# [15] = endpoint: mean survival time, dose: 12.5 mg/kg/injection, schedule: Q01DX010 (sc), vehicle: steriod suspending solution
# [16] = endpoint: mean survival time, dose: 6.25 mg/kg/injection, schedule: Q01DX010 (ip), vehicle: saline
# [17] = endpoint: mean survival time, dose: 0.5 mg/kg/injection, schedule: Q01DX010 (ip), vehicle: saline
# [18] = endpoint: mean survival time, dose: 8.0 mg/kg/injection, schedule: Q01DX010 (ip), vehicle: saline
# [19] = endpoint: mean survival time, dose: 1.0 mg/kg/injection, schedule: Q01DX010 (ip), vehicle: saline
# [20] = endpoint: mean survival time, dose: 200.0 mg/kg/injection, schedule: Q01DX010 (ip), vehicle: water
# [21] = endpoint: mean survival time, dose: 300.0 mg/kg/injection, schedule: Q01DX010 (ip), vehicle: water
smiles,measurement,setting,value
C[C@@H]1C[C@@H]([C@H](O)CC2CC(=O)NC(=O)C2)C(=O)[C@@H](C)C1,T/C,[1],112 % of control and 100 % of control
same,T/C,[2],111 % of control and 112 % of control
same,T/C,[3],111 % of control
same,T/C,[4],105 % of control
Nc1nc(=S)c2[nH]cnc2[nH]1,T/C,"endpoint: mean survival time, dose: 1.25 mg/kg/injection, schedule: Q01DX010 (ip), vehicle: saline",161 % of control and 181 % of control
same,T/C,"endpoint: mean survival time, dose: 2.5 mg/kg/injection, schedule: Q01DX010 (ip), vehicle: saline",150 % of control
same,T/C,[1],122 % of control
same,T/C,[2],105 % of control
CS(=O)(=O)OCC(O)C(O)C(O)C(O)COS(C)(=O)=O (stereo not drawn),T/C,[5],107 % of control
same,T/C,[6],103 % of control and 100 % of control
same,T/C,[7],107 % of control
same,T/C,[8],107 % of control and 121 % of control
CC[C@]12C=CCN3CC[C@@]4(c5ccc(OC)cc5N(C)[C@H]4[C@@](O)(C(=O)OC)[C@@H]1O)[C@@H]32,T/C,[9],93 % of control
same,T/C,[10],100 % of control
same,T/C,[11],93 % of control
same,T/C,[12],100 % of control
same,T/C,[6],96 % of control
same,T/C,[7],92 % of control
CN(C)[C@@H]1C(=O)C(C(N)=O)=C(O)[C@@]2(O)C(=O)C3=C(O)c4c(O)cccc4C[C@H]3C[C@@H]12,T/C,[9],107 % of control
same,T/C,[10],107 % of control
same,T/C,[11],100 % of control
same,T/C,[12],103 % of control and 100 % of control
CC1CCC2C(C)C3C(CC4C5CC=C6CC(OC7OC(CO)C(O)C(OC8OC(CO)C(O)C(O)C8O)C7OC7OC(C)C(O)C(O)C7O)CCC6(C)C5CCC43C)N2C1 (stereo not drawn),T/C,[6],96 % of control
same,T/C,[7],100 % of control
same,T/C,[8],96 % of control
same,T/C,[13],92 % of control
NCCCC(=O)NCCCCCCCCCCNC(=O)CCCN,T/C,[14],96 % of control
same,T/C,[5],93 % of control
same,T/C,[6],96 % of control
same,T/C,[7],103 % of control
C[C@]12C=CC(=O)C=C1CC[C@@H]1[C@@H]2C(=O)C[C@@]2(C)[C@H]1CC[C@]2(O)C(=O)CO,T/C,"endpoint: mean survival time, dose: 3.13 mg/kg/injection, schedule: Q01DX010 (sc), vehicle: steriod suspending solution",99 % of control
same,T/C,"endpoint: mean survival time, dose: 6.25 mg/kg/injection, schedule: Q01DX010 (sc), vehicle: steriod suspending solution",95 % of control
same,T/C,"endpoint: mean survival time, dose: 10.0 mg/kg/injection, schedule: Q01DX005 (sc), vehicle: steriod suspending solution",105 % of control and 109 % of control and 100 % of control
same,T/C,[15],88 % of control
same,T/C,"endpoint: mean survival time, dose: 50.0 mg/kg/injection, schedule: Q01DX005 (sc), vehicle: steriod suspending solution",107 % of control and 108 % of control and 110 % of control
same,T/C,"endpoint: mean survival time, dose: 100.0 mg/kg/injection, schedule: Q01DX005 (sc), vehicle: steriod suspending solution",108 % of control and 99 % of control and 100 % of control
same,T/C,"endpoint: mean survival time, dose: 200.0 mg/kg/injection, schedule: Q01DX005 (sc), vehicle: steriod suspending solution",86 % of control and 102 % of control
same,T/C,"endpoint: mean survival time, dose: 250.0 mg/kg/injection, schedule: Q01DX005 (sc), vehicle: steriod suspending solution",90 % of control and 93 % of control
CC(O)CCc1ccc(OC(=O)c2ccccc2)cc1 (stereo not drawn),T/C,[6],89 % of control
same,T/C,[7],93 % of control
same,T/C,[8],89 % of control
same,T/C,[13],93 % of control
NCCCCCCNCCCCCCN,T/C,"endpoint: mean survival time, dose: 1.56 mg/kg/injection, schedule: Q01DX010 (ip), vehicle: saline",100 % of control
same,T/C,"endpoint: mean survival time, dose: 3.13 mg/kg/injection, schedule: Q01DX010 (ip), vehicle: saline",100 % of control
same,T/C,[16],100 % of control
same,T/C,[14],92 % of control and 100 % of control
COc1ccc2c3c(c4cc(OC)c(OC)cc4c2c1)C[C@H]1CCCCN1C3,T/C,"endpoint: mean survival time, dose: 0.3 mg/kg/injection, schedule: Q01DX010 (ip), vehicle: saline",100 % of control
same,T/C,[17],113 % of control
O=C(Nc1ccc(C2=NCCN2)cc1)c1ccc(C(=O)Nc2ccc(C3=NCCN3)cc2)cc1,T/C,[18],104 % of control
same,T/C,"endpoint: mean survival time, dose: 16.0 mg/kg/injection, schedule: Q01DX010 (ip), vehicle: saline",100 % of control
same,T/C,"endpoint: mean survival time, dose: 32.0 mg/kg/injection, schedule: Q01DX010 (ip), vehicle: saline",104 % of control and 100 % of control
same,T/C,"endpoint: mean survival time, dose: 64.0 mg/kg/injection, schedule: Q01DX010 (ip), vehicle: saline",104 % of control and 100 % of control
C=C1c2[nH]c3ccccc3c2CN2CCC1/C(=C/C)C2 (stereo not drawn),T/C,"endpoint: mean survival time, dose: 0.13 mg/kg/injection, schedule: Q01DX010 (ip), vehicle: saline",96 % of control
same,T/C,"endpoint: mean survival time, dose: 0.25 mg/kg/injection, schedule: Q01DX010 (ip), vehicle: saline",93 % of control
same,T/C,[17],96 % of control
same,T/C,[19],100 % of control
OCCOCCN1CCN(CCCN2c3ccccc3Sc3ccc(C(F)(F)F)cc32)CC1,T/C,[1],100 % of control
same,T/C,[2],111 % of control
same,T/C,[3],123 % of control
same,T/C,[4],119 % of control
COc1c(OC2OC(CO)C(O)C(O)C2O)cc2c(c1OC)-c1ccc(OC)c(=O)cc1C(NC(C)=O)CC2 (stereo not drawn),T/C,[16],107 % of control
same,T/C,[14],107 % of control
same,T/C,[5],107 % of control
same,T/C,[6],107 % of control and 110 % of control
[N-]=[N+]=CC(=O)NCC(=O)NN,T/C,"endpoint: mean survival time, dose: 100.0 mg/kg/injection, schedule: Q01DX010 (ip), vehicle: water",103 % of control
same,T/C,[20],120 % of control
same,T/C,[21],123 % of control
Nc1nc(F)nc2c1ncn2C1OC(CO)C(O)C1O (stereo not drawn),T/C,[19],110 % of control and 100 % of control
same,T/C,"endpoint: mean survival time, dose: 2.0 mg/kg/injection, schedule: Q01DX010 (ip), vehicle: saline",103 % of control
same,T/C,"endpoint: mean survival time, dose: 4.0 mg/kg/injection, schedule: Q01DX010 (ip), vehicle: saline",96 % of control
same,T/C,[18],92 % of control
O=C(NO)c1ccncc1,T/C,[20],101 % of control
same,T/C,"endpoint: mean survival time, dose: 200.0 mg/kg/injection, schedule: Q02DX005 (ip), vehicle: water",106 % of control
same,T/C,[21],108 % of control
same,T/C,"endpoint: mean survival time, dose: 300.0 mg/kg/injection, schedule: Q02DX005 (ip), vehicle: water",99 % of control
same,T/C,"endpoint: mean survival time, dose: 335.0 mg/kg/injection, schedule: Q01DX010 (ip), vehicle: water",106 % of control
same,T/C,"endpoint: mean survival time, dose: 400.0 mg/kg/injection, schedule: Q01DX010 (ip), vehicle: water",106 % of control
same,T/C,"endpoint: mean survival time, dose: 400.0 mg/kg/injection, schedule: Q02DX005 (ip), vehicle: water",110 % of control
same,T/C,"endpoint: mean survival time, dose: 500.0 mg/kg/injection, schedule: Q01DX010 (ip), vehicle: water",103 % of control
same,T/C,"endpoint: mean survival time, dose: 600.0 mg/kg/injection, schedule: Q01DX010 (ip), vehicle: water",111 % of control
same,T/C,"endpoint: mean survival time, dose: 600.0 mg/kg/injection, schedule: Q02DX005 (ip), vehicle: water",106 % of control
same,T/C,"endpoint: mean survival time, dose: 800.0 mg/kg/injection, schedule: Q02DX005 (ip), vehicle: water",109 % of control
C[N+](C)(C)c1ncnc2nc[nH]c12,T/C,[11],107 % of control
same,T/C,[12],110 % of control
same,T/C,"endpoint: mean survival time, dose: 60.0 mg/kg/injection, schedule: Q01DX010 (ip), vehicle: saline",114 % of control
C[C@]12C[C@H](O)[C@H]3[C@@H](CCC4=CC(=O)CC[C@@]43C)[C@@H]1CC[C@@H]2C(=O)CO,T/C,[15],107 % of control
same,T/C,"endpoint: mean survival time, dose: 25.0 mg/kg/injection, schedule: Q01DX010 (sc), vehicle: steriod suspending solution",107 % of control
same,T/C,"endpoint: mean survival time, dose: 50.0 mg/kg/injection, schedule: Q01DX010 (sc), vehicle: steriod suspending solution",107 % of control
same,T/C,"endpoint: mean survival time, dose: 100.0 mg/kg/injection, schedule: Q01DX010 (sc), vehicle: steriod suspending solution",107 % of control
CN(Cc1cnc2nc(N)nc(N)c2n1)c1ccc(C(=O)N[C@@H](CCC(=O)O)C(=O)O)cc1,T/C,"endpoint: median survival time, dose: 0.5 mg/kg/injection, schedule: Q01DX009 (ip), vehicle: sodium bicarbonate",158 % of control
same,T/C,"endpoint: median survival time, dose: 1.0 mg/kg/injection, schedule: Q01DX009 (ip), vehicle: sodium bicarbonate",198 % of control
N#Cc1cn(C2OC(CO)C(O)C2O)c2ncnc(N)c12 (stereo not drawn),T/C,"endpoint: mean survival time, dose: 16.0 micrograms/kg/injection, schedule: Q01DX010 (ip), vehicle: saline",107 % of control
same,T/C,"endpoint: mean survival time, dose: 32.0 micrograms/kg/injection, schedule: Q01DX010 (ip), vehicle: saline",100 % of control
same,T/C,"endpoint: mean survival time, dose: 63.0 micrograms/kg/injection, schedule: Q01DX010 (ip), vehicle: saline",107 % of control
CCOC(N)=O,T/C,"endpoint: mean survival time, dose: 125.0 mg/kg/injection, schedule: Q01DX010 (ip), vehicle: saline",100 % of control
same,T/C,"endpoint: mean survival time, dose: 250.0 mg/kg/injection, schedule: Q01DX010 (ip), vehicle: saline",112 % of control and 100 % of control
same,T/C,"endpoint: mean survival time, dose: 500.0 mg/kg/injection, schedule: Q01DX010 (ip), vehicle: saline",112 % of control and 100 % of control
same,T/C,"endpoint: mean survival time, dose: 1000.0 mg/kg/injection, schedule: Q01DX010 (ip), vehicle: saline",88 % of control and 93 % of control
